Data taken from patent publication US20120046353A1 (priority 2010, published 2012).
Entries after “also recorded” stand apart in the source; their conditions may differ.

Experiments:
neuraminidase = assay type: biochemical
[1] = target: neuraminidase of novel influenza virus (Influenza A virus, UniProt C3W5S3); assay type: biochemical, novel influenza (H1N1) virus
[2] = target: neuraminidase of avian influenza virus (H9N2) (Influenza A virus, UniProt A9LRT3); experiment: biochemical; set-up: species or system avian influenza virus A/chicken/Korea/01310/2001(H9N2)
[3] = target: neuraminidase of swine influenza virus (H1N1) (Influenza A virus, UniProt Q20F35); assay type: biochemical, swine influenza virus A/Sw/Kor/CAN1/04 (H1N1)
[4] = IC50 for neuraminidase of avian influenza virus (H9N2)

| Structure (SMILES) | Type of inhibition from Lineweaver Burk plots (neuraminidase) | Inhibitory activity against neuraminidase of novel influenza virus, in words [1] | IC50 [2, 4] | IC50 ([2]; IC50 of Tamiflu against neuraminidase of avian influenza virus in combination with compound 4) | Inhibitory mechanism against neuraminidase of swine influenza virus [3] |
| --- | --- | --- | --- | --- | --- |
| COc1cc(O)c(C)c(O)c1C(=O)/C=C/c1ccccc1 [Compound 8, 2′,4′-dihydroxy-3′-methyl-6′-methoxychalcone] | non-competitive inhibitor | excellent inhibitory activity |  |  |  |
| COc1c(C)c(O)c2c(c1C)OC(c1ccccc1)CC2=O (centres unmarked) [Compound 6, 5-hydroxy-7-methoxy-6,8-dimethylflavanone] |  |  | > 503000 nM |  |  |
| COc1cc(O)c(C)c2c1C(=O)CC(c1ccccc1)O2 (centres unmarked) [Compound 11, 7-hydroxy-5-methoxy-8-methylflavanone] |  |  | > 528000 nM |  |  |
| Cc1c(O)cc(O)c2c1OC(c1ccccc1)CC2=O (centres unmarked) [Compound 12, 8-methylpinocembrin] |  |  | > 555000 nM |  |  |
| COc1c(C)c(O)c(C)c(O)c1C(=O)/C=C/c1ccccc1 [Compound 5, 2′,4′-dihydroxy-6′-methoxy-3′,5′-dimethylchalcone] | non-competitive inhibitor | excellent inhibitory activity |  |  |  |
| CCOC(=O)C1=C[C@@H](OC(CC)CC)[C@H](NC(C)=O)[C@@H](N)C1 [Tamiflu, oseltamivir phosphate, reference compound] |  |  | 13.6 nM | 1.47 nM |  |
| COc1c(C)c(O)c(C)c(O)c1C(=O)/C=C/c1ccc(O)cc1 [Compound 4, 4,2′,4′-trihydroxy-6′-methoxy-3′,5′-dimethylchalcone] | non-competitive inhibitor | excellent inhibitory activity |  |  | non-competitive inhibitor that reversibly inhibits; also recorded: noncompetitive inhibitor |
| COc1c(C)c(O)c(C)c(O)c1C(=O)/C=C/c1ccccc1O [Compound 14, 2,2′,4′-trihydroxy-6′-methoxy-3′,5′-dimethylchalcone] | non-competitive inhibitor | excellent inhibitory activity |  |  |  |
